Some results are limits rather than exact numbers.

The target in this experiment is Stromelysin-1 (MMP-3). Description: In vitro inhibitory activity against matrix metalloprotease-3.
In general, IC50 refers to the midpoint of a concentration-inhibition curve. Read a high IC50 as weaker potency in that assay. As to `CCC[C@H]1CC[C@@](CS)(C(=O)N[C@@H](Cc2ccccc2)C(=O)NC)CC1` [1-Mercaptomethyl-4-propyl-cyclohexanecarboxylic acid ((S)-1-methylcarbamoyl-2-phenyl-ethyl)-amide], the IC50 is above 10000 nM.
In the case of `CNC(=O)[C@H](Cc1ccccc1)NC(=O)C1(CS)CCCCC1` [1-Mercaptomethyl-cyclohexanecarboxylic acid ((S)-1-methylcarbamoyl-2-phenyl-ethyl)-amide], half-maximal inhibition (IC50) was put at 9200 nM.
The same measure for `CCO[C@H]1CC[C@@](CS)(C(=O)N[C@@H](Cc2ccccc2)C(=O)NCc2ccccc2)CC1` [4-Ethoxy-1-mercaptomethyl-cyclohexanecarboxylic acid ((S)-1-benzylcarbamoyl-2-phenyl-ethyl)-amide]: 207 nM; for `CCO[C@H]1CC[C@@](CS)(C(=O)N[C@@H](Cc2ccccc2)C(=O)NC2CCCCC2)CC1` [4-Ethoxy-1-mercaptomethyl-cyclohexanecarboxylic acid ((S)-1-cyclohexylcarbamoyl-2-phenyl-ethyl)-amide]: 617 nM.
For the compound `CCO[C@H]1CC[C@@](CS)(C(=O)N[C@@H](Cc2ccccc2)C(=O)NC2CCCC2)CC1` [4-Ethoxy-1-mercaptomethyl-cyclohexanecarboxylic acid ((S)-1-cyclopentylcarbamoyl-2-phenyl-ethyl)-amide], the IC50 is 666 nM.
The compound `CCO[C@H]1CC[C@@](CS)(C(=O)N[C@@H](Cc2ccccc2)C(=O)NC)CC1` [4-Ethoxy-1-mercaptomethyl-cyclohexanecarboxylic acid ((S)-1-methylcarbamoyl-2-phenyl-ethyl)-amide] registered an IC50 of 640 nM.
Regarding `CCO[C@H]1CC[C@@](CS)(C(=O)N[C@@H](Cc2ccccc2)C(=O)Nc2ccc(Cl)cc2)CC1` [4-Ethoxy-1-mercaptomethyl-cyclohexanecarboxylic acid [(S)-1-(4-chloro-phenylcarbamoyl)-2-phenyl-ethyl]-amide], the concentration for half-maximal inhibition (IC50) was found to be 113 nM.
Regarding `CCO[C@H]1CC[C@@](CS)(C(=O)N[C@@H](Cc2ccccc2)C(=O)Nc2ccc(OC)cc2)CC1` [4-Ethoxy-1-mercaptomethyl-cyclohexanecarboxylic acid [(S)-1-(4-methoxy-phenylcarbamoyl)-2-phenyl-ethyl]-amide], half-maximal inhibition (IC50) required 39 nM.
With `CCOc1ccc(C[C@H](NC(=O)[C@]2(CS)CC[C@H](OCC)CC2)C(=O)Nc2ccccc2)cc1` [4-Ethoxy-1-mercaptomethyl-cyclohexanecarboxylic acid [(S)-2-(4-ethoxy-phenyl)-1-phenylcarbamoyl-ethyl]-amide] the figure was 139 nM; with `CCO[C@H]1CC[C@@](CS)(C(=O)N[C@@H](Cc2ccc(F)cc2)C(=O)Nc2ccccc2)CC1` [4-Ethoxy-1-mercaptomethyl-cyclohexanecarboxylic acid [(S)-2-(4-fluoro-phenyl)-1-phenylcarbamoyl-ethyl]-amide], 134 nM; with `CCO[C@H]1CC[C@@](CS)(C(=O)N[C@@H](Cc2ccc(OC)cc2)C(=O)Nc2ccccc2)CC1` [4-Ethoxy-1-mercaptomethyl-cyclohexanecarboxylic acid [(S)-2-(4-methoxy-phenyl)-1-phenylcarbamoyl-ethyl]-amide], 62 nM.
As to `CCO[C@H]1CC[C@@](CS)(C(=O)N[C@@H](Cc2ccccc2)C(=O)Nc2ccc(OC(F)(F)F)cc2)CC1` [4-Ethoxy-1-mercaptomethyl-cyclohexanecarboxylic acid [(S)-2-phenyl-1-(4-trifluoromethoxy-phenylcarbamoyl)-ethyl]-amide], the midpoint of inhibition, the IC50, lay at 175 nM.
For `CCO[C@H]1CC[C@@](CS)(C(=O)N[C@@H](Cc2ccccc2)C(=O)Nc2ccccn2)CC1` [4-Ethoxy-1-mercaptomethyl-cyclohexanecarboxylic acid [(S)-2-phenyl-1-(pyridin-2-ylcarbamoyl)-ethyl]-amide], half-maximal inhibition (IC50) was put at 449 nM.
Compound `CNC(=O)[C@H](Cc1ccccc1)NC(=O)[C@]1(CS)CC[C@H](C(C)(C)C)CC1` [4-tert-Butyl-1-mercaptomethyl-cyclohexanecarboxylic acid ((S)-1-methylcarbamoyl-2-phenyl-ethyl)-amide] displayed an IC50 above 10000 nM.
In turn, `CNC(=O)[C@H](Cc1ccccc1)NC(=O)[C@@]1(CS)CCCC(OC)C1` (stereo partly drawn) [(R)-1-Mercaptomethyl-3-methoxy-cyclohexanecarboxylic acid ((S)-1-methylcarbamoyl-2-phenyl-ethyl)-amide] registered an IC50 above 10000 nM.

The values are drawn from BindingDB's records for doi:10.1016/s0960-894x(98)00716-1 (Novartis Biomedical Research Institute, 1999).
